Measured values: patent publication US11173124B2, “Oral delivery of GLP-1 peptide analogs” (MEDIMMUNE LIMITED, priority 2017, dated 2021)
Starred links: 1 amine or outer side, 2 acyl side, 3 side chain; linkers in the order of their positions; H or OH if unused. Non-standard residues stand in square brackets, D forms with d. Residues, ends and D or L forms follow the SMILES beside them. Groups on a side chain read outwards from the residue. *: point of attachment. γGlu = O=C(O)[C@H](CCC(=O)[*:2])N[*:1]; αMeF = C[C@](N)(Cc1ccccc1)C(=O)O; αMeK = C[C@](N)(CCCCN)C(=O)O; Lauroyl = CCCCCCCCCCCC(=O)*; αMeS = C[C@](N)(CO)C(=O)O; AEEA = NCCOCCOCC(=O)O; Aib = CC(C)(N)C(=O)O

Tests used:
[1] = Canine study, MEDI7219 multi-unit particulate (MUPS) formulations (Example 16); format: in vivo; settings: Oral capsule, MUPS 9 mg peptide, 88 mg Na CDC, 190 mg PG
Description: Ten different Multi-unit particulate (MUPS) formulations were prepared (Table 23) using the MEDI7219 (SEQ ID NO:2) peptide and permeation enhancers. The manufacturing process for the MUPS formulation was as follows. A solution of MEDI7219 (SEQ ID NO:2) peptide, sodium chenodeoxycholate and propyl gallate was prepared in water and sprayed onto sugar spheres in a Glatt Mini fluid bed coater. Following drying, sugar spheres coated with peptide and permeation enhancers were coated to result in the compositions described in Table 23.

[2] = Canine study, MEDI7219 enterically coated tablets with or without Tris base, fresh or stressed (Example 19, Table 26); format: in vivo; settings: beagle, dog, plasma, po, Beagle dogs
Excerpt: The objective was to study influence of MEDI7219 (SEQ ID NO:2) enterically coated tablet formulation composition with or without Tris base on bioperformance Study design and outcomes are provided in Table 26.

[3] = Caco-2 permeability assay, permeability coefficient Papp (Examples 1 and 2); format: in vitro ADME, human
Excerpt: (§1) The Caco-2 cell line is a continuous cell line of heterogeneous human epithelial colorectal adenocarcinoma cells, which when cultured under specific conditions, become differentiated and polarized such that their phenotype, morphologically and functionally, resembles the enterocytes lining the small intestine. Caco-2 cells express tight junctions, microvilli, and a number of enzymes and transporters that are characteristic of such enterocytes. Caco-2 cells are most commonly used as a tight junction monolayer that provides a physical and biochemical barrier to the passage of drugs and thus serves as an in vitro model of the human small intestinal mucosa to predict the absorption of orally administered drugs. Caco-2 permeability assays were performed by Cyprotex US, LLC (MA, USA) to assess the efficacy of different permeation enhancers. Caco-2 cells were grown on Transwell filters until a transepithelial electric resistance of ˜1000 ohms/cm^2 was achieved. The cells were incubated for three hours with media containing test samples on the apical (top) side of the cell layer, and with blank media on the basolateral (lower) side of the cell layer. Media from the apical and basolateral sides was collected separately after three hours and evaluated for the amount of peptide present on each side. Table 2 gives the permeability coefficient (Papp) of the various test samples, which include the SEQ ID NO:3 GLP-1 peptide in the presence of different excipients.
The apparent permeability coefficients (Papp) of all polypeptides were calculated using the following equation: Papp=dQ/dt×1/A C0
Where dQ/dt is the amount of solutes transported across the Caco-2 barrier in time dt, C0 is the solute concentration in the apical compartment at time zero, and A is the cross-sectional area of the epithelium in contact with apical solution.
The next Caco-2 study was performed to evaluate the ability of additional excipients to enhance the permeability of the SEQ ID NO:3 peptide across tight junction cell layers.

Caco-2 cells = test: Caco-2 study, Permeability (%) of lipidated peptides (Example 3); format: in vitro ADME, human; settings: 0.1 mg/mL peptide
Excerpt: as §1
A following Caco-2 study was performed to evaluate the permeability of different peptides in the presence of various permeation enhancers. Permeability (%) was calculated by dividing the cumulative amount of molecules transported with the original loading amount. Concentrations of peptides in starting sample and apical and basal solutions after incubation for pre-determined periods were analyzed by HPLC. Sodium chenodeoxycholate at 25 mg/mL effected the highest permeability of each tested peptide (Table 4).

[4] = Canine site of absorption study, IntelliCap, SEQ ID NO:3 solution formulations (Example 10); format: in vivo, Beagle dogs; settings: for bioavailability: Beagle, plasma; for bioavailability / AUC(0-t) / Cmax / Tmax: dog, pH 8, canine; for F: canine; for AUC(0-t) / Cmax / Tmax: in vivo
Excerpt: The IntelliCap® system, an electronic oral drug delivery and monitoring device, was used to determine regional absorption for solution formulations. In the form of a capsule, the IntelliCap® incorporates a microprocessor, battery, pH sensor, temperature sensor, radio frequency (RF) wireless transceiver, fluid pump, and drug reservoir. The IntelliCap® system can determine the drug's position in the gastrointestinal (GI) tract by a pH monitoring sensor in the capsule, thereby eliminating the need for in vivo imaging. This system was employed to assess the site of absorption of GLP-1 peptide analogs in the GI tract following oral delivery to canines (Beagle dogs). Solution formulations without permeation enhancer excipients were used as intravenous (IV) and subcutaneous (SC) controls in the study. In brief, solution formulations were prepared and transferred to the IntelliCap® capsule which was dosed to canines, wherein the formulation was released at a specific site in the GI tract.

[5] = po, 0.74 mg/kg, PO IntelliCap capsule-proximal small bowel, 8 mg/mL peptide, 10 mg/mL Na CDC, 2 mg/mL Sodium Caprate, PBS pH 8.0
[6] = po, 0.74 mg/kg, PO IntelliCap proximal colon, 8 mg/mL peptide, 10 mg/mL Na CDC, 2 mg/mL Sodium Caprate, PBS pH 8.0
[7] = po, 0.74 mg/kg, PO gavage, 8 mg/mL peptide, 10 mg/mL Na CDC, 2 mg/mL Sodium Caprate, PBS pH 8.0
[8] = iv, 0.01 mg/kg, 0.1 mg/mL peptide in PBS pH 8.0
[9] = sc, 0.01 mg/kg, 0.1 mg/mL peptide in PBS pH 8.0

Work on CCCCCCCCCCCC(=O)N[C@@H](CCC(=O)NCCOCCOCC(=O)NCCOCCOCC(=O)NCCCC[C@H](NC(=O)[C@H](C)NC(=O)[C@@H](NC(=O)[C@](C)(Cc1ccccc1)NC(=O)[C@H](CCC(=O)O)NC(=O)[C@](C)(CCCCN)NC(=O)[C@H](C)NC(=O)[C@H](C)NC(=O)[C@H](CCC(=O)O)NC(=O)CNC(=O)[C@H](CCC(=O)O)NC(=O)[C@H](CC(C)C)NC(=O)[C@H](CCCCNC(=O)COCCOCCNC(=O)COCCOCCNC(=O)CC[C@H](NC(=O)CCCCCCCCCCC)C(=O)O)NC(=O)[C@H](CO)NC(=O)[C@](C)(CO)NC(=O)[C@@H](NC(=O)[C@H](CC(=O)O)NC(=O)[C@H](CO)NC(=O)[C@@H](NC(=O)[C@](C)(Cc1ccccc1)NC(=O)[C@H](CO)NC(=O)CNC(=O)[C@H](CCC(=O)O)NC(=O)C(C)(C)NC(=O)[C@@H](N)Cc1c[nH]cn1)[C@@H](C)O)C(C)C)[C@@H](C)CC)C(=O)N[C@H](C(=O)N[C@H](C(=O)N[C@@H](CCC(=O)O)C(=O)NCC(=O)NCC(N)=O)C(C)C)C(C)C)C(=O)O [MEDI7219, Free-H-[AIB]-EGS-[αMePhe]-TSDV-[αMeSer]-SK[(PEG2)2-γE-Lauroyl]-LEGEAA-[αMeLys]-E-[αMePhe]-IAK[(PEG2)2-γE-Lauroyl]-VVEGG-amide] (H-H[Aib]EGS[αMeF]TSDV[αMeS]SK([AEEA-AEEA-γGlu-Lauroyl])LEGEAA[αMeK]E[αMeF]IAK([AEEA-AEEA-γGlu-Lauroyl])VVEGG-NH2) yielded an F ([1]; 10% Carbopol 71G Mucoadhesive polymer + 25% pH 5.5 EC) of 0.393%, an F ([1]; 10% Carbopol 71G Mucoadhesive polymer + 25% pH 7.0 EC) of 0.582% and an F ([1]; 10% Polycarbophill AA Mucoadhesive polymer + 25% pH 5.5 EC) of 0.124%. It also gave an F ([1]; 10% Polycarbophill AA Mucoadhesive polymer + 25% pH 7.0 EC) of 0.572%, an F ([1]; + 10% Eudragit(RL + RS) + 25% pH 5.5 EC) of 0.537% and an F ([1]; pH 5.5 EC) of 1.30%. The F ([1]; pH 7.0 EC) was 2.54%, the bioavailability ([2]; 3 mg/dog, freshly prepared enterically coated no Tris tablet) was 5.2% and the bioavailability ([2]; 3 mg/dog, freshly prepared enterically coated tablets with Tris) was 12.4%. The bioavailability ([2]; stressed enterically coated tablet with Tris) was 3.8% and the bioavailability ([2]; stressed enterically coated tablet without Tris) was 9.6%.
Work on CC[C@H](C)[C@H](NC(=O)C(C)(Cc1ccccc1)NC(=O)[C@H](CCC(=O)O)NC(=O)[C@H](CCCCNC(=O)COCCOCCNC(=O)COCCOCCNC(=O)CC[C@H](NC(=O)CCCCCCCCCCCCCCCCC(=O)O)C(=O)O)NC(=O)[C@H](C)NC(=O)[C@H](C)NC(=O)[C@H](CCC(=O)O)NC(=O)CNC(=O)[C@H](CCC(=O)O)NC(=O)[C@H](CC(C)C)NC(=O)C(C)(Cc1ccccc1)NC(=O)[C@H](CO)NC(=O)C(C)(CO)NC(=O)[C@@H](NC(=O)[C@H](CC(=O)O)NC(=O)[C@H](CO)NC(=O)[C@@H](NC(=O)C(C)(Cc1ccccc1)NC(=O)[C@H](CO)NC(=O)CNC(=O)[C@H](CCC(=O)O)NC(=O)C(C)(C)NC(=O)[C@@H](N)Cc1c[nH]cn1)[C@@H](C)O)C(C)C)C(=O)N[C@@H](C)C(=O)NC(C)(Cc1ccccc1)C(=O)N[C@H](C(=O)N[C@H](C(=O)NC(C)(CCCCN)C(=O)NCC(=O)NCC(N)=O)C(C)C)C(C)C (stereo partly drawn) [SEQ ID NO: 3, Free-H-[AIB]-EGS-[αMePhe]-TSDV-[αMeSer]-S-[αMePhe]-LEGEAAK[(PEG2)2-γE-Stearate]-E-[αMePhe]-IA-[αMePhe]-VV-[αMeLys]-GG-amide] yielded a Papp A→B ([3]; Caco-2, Example 1, 0.05 mg/mL peptide, ⅛ Lauroglycol FCC:Kolliphor EL:Transcutol HP 5:4:3 (w/w)) of 0.09 ×10⁻⁶ cm/s, a Papp A→B ([3]; Caco-2, Example 1, 0.1 mg/mL peptide, 0.5 mg/mL Tetradecylmaltoside) of 0.05 ×10⁻⁶ cm/s and a Papp A→B ([3]; Caco-2, Example 1, 0.1 mg/mL peptide, 2.5 mg/mL Tetradecylmaltoside) of 0.88 ×10⁻⁶ cm/s. For the same compound, the Papp A→B ([3]; Caco-2, Example 1, 0.1 mg/mL peptide, 5.0 mg/mL Sodium Chenodeoxycholate) was 6.2 ×10⁻⁶ cm/s, the Papp A→B ([3]; Caco-2, Example 1, 0.1 mg/mL peptide, 10.0 mg/mL Sodium Decanoate) was 0.4 ×10⁻⁶ cm/s and the Papp A→B ([3]; Caco-2, Example 1, 0.1 mg/mL peptide, 12.5 mg/mL Tetradecylmaltoside) was 7.8 ×10⁻⁶ cm/s. The Papp A→B ([3]; Caco-2, Example 1, 0.1 mg/mL peptide, 25.0 mg/mL Sodium Chenodeoxycholate) was 10.3 ×10⁻⁶ cm/s, the Papp A→B ([3]; Caco-2, Example 1, 0.1 mg/mL peptide, ¼ Lauroglycol FCC:Kolliphor EL:Transcutol HP 5:4:3 (w/w)) was 0.05 ×10⁻⁶ cm/s and the Papp A→B ([3]; Caco-2, Example 2, 0.1 mg/mL peptide, 12.5 mg/mL Dodecylmaltoside) was 6.4 ×10⁻⁶ cm/s. The Papp A→B ([3]; Caco-2, Example 2, 0.1 mg/mL peptide, 12.5 mg/mL Tetradecylmaltoside) was 1.4 ×10⁻⁶ cm/s, the Papp A→B ([3]; Caco-2, Example 2, 0.1 mg/mL peptide, 25.0 mg/mL Sodium Chenodeoxycholate, 12.5 mg/mL Propyl gallate) was 43.1 ×10⁻⁶ cm/s and the “Permeability (%)” value (Caco-2 cells; 5.0 mg/mL Chitosan) was 0%. The “Permeability (%)” value (Caco-2 cells; 5.0 mg/mL Octyl β-D-glucopyranoside) was 0%, the “Permeability (%)” value (Caco-2 cells; 5.0 mg/mL Sodium Chenodeoxycholate) was 1.7% and the “Permeability (%)” value (Caco-2 cells; 5.0 mg/mL Tri-Me-Chitosan) was 0%. For the same compound, the “Permeability (%)” value (Caco-2 cells; 25 mg/mL Chitosan) was 0%, the “Permeability (%)” value (Caco-2 cells; 25 mg/mL Octyl β-D-glucopyranoside) was 2.0% and the “Permeability (%)” value (Caco-2 cells; 25 mg/mL Sodium Chenodeoxycholate) was 12.6%. The “Permeability (%)” value (Caco-2 cells; 25 mg/mL Tri-Me-Chitosan) was 0%, the “Permeability (%)” value (Caco-2 cells; no enhancer) was 0% and the bioavailability [4, 5] was 1.14%. For the same compound, the bioavailability [4, 6] was 3.95%, the bioavailability [4, 7] was 0.19% and the F ([4]; IV, 0.01 mg/kg, 0.1 mg/mL peptide in PBS pH 8.0) was 100%. For the same compound, the F ([4]; SC, 0.01 mg/kg, 0.1 mg/mL peptide in PBS pH 8.0) was 105.84%, the AUC(0-t) [4, 8] was 1650 ng·h/mL and the Cmax [4, 8] was 140 ng/mL. It also gave a Tmax [4, 8] of 30 min, an AUC(0-t) [4, 5] of 1390 ng·h/mL and a Cmax [4, 5] of 60.7 ng/mL. For the same compound, the Tmax [4, 5] was 30 min, the AUC(0-t) [4, 6] was 4840 ng·h/mL and the Cmax [4, 6] was 386 ng/mL. The AUC(0-t) [4, 7] was 228 ng·h/mL, the Cmax [4, 7] was 7.1 ng/mL and the Tmax [4, 7] was 240 min. For the same compound, the AUC(0-t) [4, 9] was 1750 ng·h/mL and the Cmax [4, 9] was 45.1 ng/mL.
